Like-named read-outs stand apart in the source and are kept apart here. Residues, ends and D or L forms follow the SMILES beside them.
Target: h-mT1R2-481/T1R3mosaicA (UniProt Q8TE23+Q925D8, A12W/A31M/A537S/A558R/A564V/A568V/A570T/A588V/A645S/A649T/A658V/A698V/A702T/A782V/A793V/A807V/C582S/C678S/E16H/E530V/E534N/E542M/E548N/E725V/F14L/F29L/F525Y/F541I/F612A/F622V/F665L/F695L/G696N/G701T/H484Y/H528R/H728R/I36V/I481V/I486P/I490V/I510L/I518V/I595M/I60P/I617V/I643V/I645L/I692L/I695G/I706V/I740A/I803L/K30R/K504M/K555R/K565R/K626T/K714N/K818R/K827G/L17P/L521P/L560F/L571I/L578I/L610P/L631F/L636F/L639V/L684P/L688V/L702I/L734M/L735F/L800F/L823M/L825Q/M19T/M492I/M616G/M644L/M682V/M690V/M744T/M748V/N52R/N540G/N541S/N547G/N58S/N63T/N675D/N721H/P545F/P561R/P564S/P61V/P638T/P824S/Q32K/Q536L/Q53S/Q546K/Q550E/Q555R/Q56R/Q611L/Q676H/Q757R/Q795R/Q831P/R498S/R632Q/R667S/S22P/S45E/S501P/S547N/S550A/S576L/S595F/S610P/S628F/S635P/S637R/S663R/S670G/S679G/S681F/S703N/S717H/S727G/S784D/S804G/T46A/T50G/T529S/T542A/T549I/T609V/T629S/T642S/T663I/T694M/T705I/T706G/T716I/T813A/V508I/V512P/V557A/V573A/V584A/V585L/V613L/V617M/V673M/V687A/V691A/V694A/V718L/V718M/V723A/V729T/V738A/V741L/V774I/V791M/V805L/V812A/V821L/W599R/W676R/W824R/Y533F/Y615F/Y671F/Y680C/Y769S/Y783H/Y794L)
Conditions: HEK293E cells
[1] = Table 3, genes h-mT481/T3mA (h-mT1R2-481, T1R3mA)
[2] = Table 4, genes h-mT481/T3mA (h-mT1R2-481, T1R3mA)
[3] = Table 5, genes h-mT481/T3mA (h-mT1R2-481, T1R3mA)
[4] = Table 6, genes h-mT481/T1Rm3A (h-mT1R2-481, T1R3mA)

h-mT1R2-481/T1R3mosaicA, sequence (Q8TE23 with tags, fused parts or gaps with the stated changes limits assumed): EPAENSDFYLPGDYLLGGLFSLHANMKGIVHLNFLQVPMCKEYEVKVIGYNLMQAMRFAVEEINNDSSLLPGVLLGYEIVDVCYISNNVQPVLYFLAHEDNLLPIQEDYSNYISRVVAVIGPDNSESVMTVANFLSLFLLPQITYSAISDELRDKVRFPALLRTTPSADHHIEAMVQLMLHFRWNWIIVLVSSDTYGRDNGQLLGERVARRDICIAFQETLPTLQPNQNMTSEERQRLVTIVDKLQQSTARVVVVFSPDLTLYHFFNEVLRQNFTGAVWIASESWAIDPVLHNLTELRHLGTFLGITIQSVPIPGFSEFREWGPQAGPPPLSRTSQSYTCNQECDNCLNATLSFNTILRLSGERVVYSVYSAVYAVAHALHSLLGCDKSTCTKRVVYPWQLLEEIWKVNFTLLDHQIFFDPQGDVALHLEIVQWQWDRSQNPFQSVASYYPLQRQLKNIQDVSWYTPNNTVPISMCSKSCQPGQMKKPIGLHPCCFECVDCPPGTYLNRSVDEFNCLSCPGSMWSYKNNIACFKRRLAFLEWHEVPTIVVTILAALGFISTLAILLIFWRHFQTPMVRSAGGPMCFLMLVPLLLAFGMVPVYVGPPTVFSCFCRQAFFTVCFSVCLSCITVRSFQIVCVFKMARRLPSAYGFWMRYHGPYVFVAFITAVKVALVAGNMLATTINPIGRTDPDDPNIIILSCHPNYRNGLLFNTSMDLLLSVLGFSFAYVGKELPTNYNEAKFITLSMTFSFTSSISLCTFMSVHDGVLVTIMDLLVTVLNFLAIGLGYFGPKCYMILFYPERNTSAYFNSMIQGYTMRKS
h-mT1R2-481/T1R3mosaicA, sequence (Q925D8 with tags, fused parts or gaps with the stated changes limits assumed): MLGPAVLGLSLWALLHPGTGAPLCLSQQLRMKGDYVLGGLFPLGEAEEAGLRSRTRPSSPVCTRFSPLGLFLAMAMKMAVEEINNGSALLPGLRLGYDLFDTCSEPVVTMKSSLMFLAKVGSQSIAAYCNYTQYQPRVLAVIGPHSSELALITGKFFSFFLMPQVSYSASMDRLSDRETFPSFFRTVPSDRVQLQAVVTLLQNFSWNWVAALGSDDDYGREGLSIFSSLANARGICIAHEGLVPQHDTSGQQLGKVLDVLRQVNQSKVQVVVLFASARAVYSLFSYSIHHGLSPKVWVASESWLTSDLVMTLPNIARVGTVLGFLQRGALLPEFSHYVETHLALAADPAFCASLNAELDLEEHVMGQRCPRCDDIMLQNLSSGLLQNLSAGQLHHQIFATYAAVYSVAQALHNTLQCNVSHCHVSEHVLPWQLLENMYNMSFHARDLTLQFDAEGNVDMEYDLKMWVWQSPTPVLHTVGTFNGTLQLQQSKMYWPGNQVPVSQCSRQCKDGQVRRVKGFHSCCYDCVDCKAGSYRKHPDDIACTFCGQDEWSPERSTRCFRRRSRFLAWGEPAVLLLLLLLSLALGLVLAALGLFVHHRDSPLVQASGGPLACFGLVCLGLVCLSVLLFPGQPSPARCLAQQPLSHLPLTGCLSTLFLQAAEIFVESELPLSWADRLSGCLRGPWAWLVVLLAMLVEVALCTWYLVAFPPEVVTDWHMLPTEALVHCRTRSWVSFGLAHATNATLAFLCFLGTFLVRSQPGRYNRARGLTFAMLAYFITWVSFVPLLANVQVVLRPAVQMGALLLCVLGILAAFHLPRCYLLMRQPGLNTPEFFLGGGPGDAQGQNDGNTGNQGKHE

| Structure (SMILES) | S/N [1] | S/N [2] | S/N [3] | S/N [4] |
| --- | --- | --- | --- | --- |
| CC1=CC(=O)NS(=O)(=O)O1 [Acesulfame K, acesulfame potassium] | 4.7 | 5.4 | 4.7 | 6.0 |
| COC(=O)[C@H](Cc1ccccc1)NC(=O)[C@H](CC(=O)O)NCCCc1ccc(OC)c(O)c1 [Advantame, advantame] | 10.6 | 11.3 | 10.6 | 10.5 |
| COC(=O)[C@H](Cc1ccccc1)NC(=O)[C@@H](N)CC(=O)O [Aspartame, aspartame] (HELM PEPTIDE1{D.F.[CO[*:1]]}$$$$V2.0) | 7.0 | 9.4 | 7.0 | 7.3 |
| COc1ccc(CCC(=O)c2c(O)cc(O[C@@H]3O[C@H](CO)[C@@H](O)[C@H](O)[C@H]3O[C@@H]3O[C@@H](C)[C@H](O)[C@@H](O)[C@H]3O)cc2O)cc1O [NHDC, neohesperidin dihydrochalcone] | – | – | 4.3 | 5.9 |
| COC(=O)[C@H](Cc1ccccc1)NC(=O)[C@H](CC(=O)O)NCCC(C)(C)C [Neotame, neotame] | 8.8 | 9.4 | 8.8 | 8.9 |
| C[C@H](NC(=Nc1ccc(C#N)cc1)NCC(=O)O)c1ccccc1 [SC-45647, [3-[(S)-1-phenylethyl]-2-(4-cyanophenyl)guanidino]acetic acid] | 8.4 | 7.9 | 8.4 | 8.7 |
| O=C1NS(=O)(=O)c2ccccc21.[Na] [Saccharin Na, sodium saccharin] | 5.6 | 5.6 | 5.6 | 6.9 |
| OC[C@H]1O[C@H](O[C@]2(CCl)O[C@H](CCl)[C@@H](O)[C@@H]2O)[C@H](O)[C@@H](O)[C@H]1Cl [Sucralose, sucralose] | 7.8 | 9.0 | 7.8 | 7.0 |
| OC[C@H]1O[C@@](CO)(O[C@H]2O[C@H](CO)[C@@H](O)[C@H](O)[C@H]2O)[C@@H](O)[C@@H]1O [Sucrose, sucrose] | 3.4 | 3.9 | 3.4 | 3.8 |

— US9341616B2, “Sweet taste receptor chimeric proteins and use thereof” (AJINOMOTO CO., INC., priority 2014, dated 2016)
